Consider two molecules from patent publication US20080262097A1, “Formulations” (priority 2005, published 2008).

The subject of one test is P. avidum ATCC 25577. Description: MIC assay. Type of test: cell-based. The conditions noted are these: Cutibacterium avidum, ATCC25577; P. avidum ATCC 25577 (resistance None). As to the method: (§1) The Propionibacterium spp organisms were cultured and maintained on Wilkins-Chalgren Anaerobe Medium (agar and broth) at pH 6.0; cultures were incubated anaerobically at 37° C. for 72 hours.
(§2) This is a standard international method for quantitatively assessing the antimicrobial activity of a compound in a liquid medium. The method used a 96-well microtitre plate, capable of holding about 200 μl of liquid per well. […] The culture media were as described above for the relevant test organisms.
(§3) The wells were inoculated with a liquid suspension of freshly grown micro-organism and incubated under the conditions described above. After incubation, the microtitre plate was examined visually (with the aid of a light box) for cell pellets in and/or opaque wells, which would indicate microbial growth. The MIC value was recorded as the lowest concentration of test compound required to inhibit microbial growth, ie, the lowest concentration for which the liquid in the well remained clear.
(§4) The assays were conducted in duplicate and included both negative (culture medium only) and positive (culture medium, diluting solvent and inoculum) controls.

Another test relates to P. granulosum PRP-055. Description: MIC assay. In kind it is cell-based. The conditions noted are these: P. granulosum PRP-055 (resistance None). How it is done:
as §1, §2, §3, §4

Converted amounts (≈) assume the structure as drawn.

In general, MIC refers to the least concentration at which growth counts as inhibited. Low values mean inhibition by little substance, high ones a need for much substance. Regarding `CC(C)(C)c1cc(O)ccc1O` [TBHQ, t-butyl hydroquinone], the MIC against P. avidum ATCC 25577 and against P. granulosum PRP-055 was 3.9 µg/mL (≈ 23.5 µM) in each case.
With `O=C(OOC(=O)c1ccccc1)c1ccccc1` [benzoyl peroxide], the MIC was 31.2 µg/mL (≈ 129 µM) in the test on P. avidum ATCC 25577 and 15.6 µg/mL (≈ 64.4 µM) with P. granulosum PRP-055.
